The text below walks through data of patent EP3064205A1, “Therapeutic use of isomeric forms of 2-(4-chlorophenyl)quinolin-4-yl)(piperidin-2-yl)methanol” (Glionova AB, priority 2015, dated 2016).

The structures appear in SMILES notation. Where two headings read alike, the source gives them in different places.

The subject of experiment [1] is patient-derived tumor xenograft (PDX) tumor panel. As to the kind of experiment: 3D clonogenic assay, whole panel. The format is cell-based, human. The note with it: for IC50: Homo sapiens. The procedure:
(§1) The anti-tumor efficacy of S1 in the patient-derived tumor xenograft (PDX) tumor panel was assessed, where the efficacy of S1 in PDX tumor panel in the 96-well format, in 10 concentrations in duplicate was performed. Colony formation of tumor cell suspensions in a soft-agar matrix was observed and quantified. The output is IC50 values and dose response-relationships based on number of colonies in control and treatment wells, as identified by an automated image analysis algorithm. Stock solution of S1 was prepared in 100% DMSO at 10 mM concentration (stored at -20°C) and reused for each experiment. Compound final test concentrations: Dilution series ½ i.e.: 50µM, 15, 5, 1.5, 0.5, 0.15, 0.05, 0.015, 0.005 and 0.0015.
(§2) Tumor xenografts (also referred to as patient-derived tumor xenografts) were passaged as subcutaneous xenografts in NMRI nu/nu mice. Tumor xenograft were removed from mice under sterile conditions, mechanically disaggregated and subsequently incubated with an enzyme cocktail consisting of collagenase type IV (41 U/mL), DNase I (125 U/mL), hyaluronidase type III (100 U/mL) and dispase II (1.0 U/mL) in RPMI 1640 medium at 37°C for 60 - 120 minutes. Cells were passed through sieves of 100 µm and 40 µm mesh size and washed with RPMI 1640 medium. The percentage of viable cells was determined in a Neubauer-hemocytometer using trypan blue exclusion. Aliquots of the cells were frozen down, and stored in liquid nitrogen.
The clonogenic assay test was carried out in 96 well plate format. For each test a frozen aliquot of tumor cells prepared from tumor xenografts was thawed and assay plates were prepared as follows: each test well contained 3 layers of equal volume, 2 layers of semi-solid medium (bottom and top layer), and one layer of medium supernatant, with or without test compound. The bottom layer consisted of 0.05 mL/well Iscove's Modified Dulbecco's Medium (Invitrogen), supplemented with 20% (v/v) fetal calf serum (Sigma), 0.01% (w/v) gentamicin (Invitrogen) and 0.75% (w/v) agar (BD Biosciences). Tumor cells were added to 0.05 mL of the same culture medium supplemented with 0.4% (w/v) agar and plated onto the bottom layer. After 24 h, test compounds were added after serial dilution in DMSO and transfer in cell culture medium, and left on the cells for the duration of the experiment (continuous exposure, 0.05 mL drug overlay). Every dish included six untreated control wells and drug-treated groups in duplicate at 10 concentrations. Cultures were incubated at 37 °C and 7.5% CO2 in a humidified atmosphere for 8 to 13 days and monitored closely for colony growth using an inverted microscope. Within this period, ex vivo tumor growth lead to the formation of colonies with a diameter of >50 µm. At the time of maximum colony formation, counts were performed with an automatic image analysis system. 24 h prior to evaluation, vital colonies were stained with a sterile aqueous solution of 2-(4-iodophenyl)-3-(4-nitrophenyl)-5-phenyltetrazolium chloride (1 mg/mL, 100 µL/well). Sigmoidal concentration-response curves were fitted to the data points obtained for each tumor model using 4 parameter non-linear curve fit (Oncotest Warehouse Software). IC50 values are reported as relative IC50 values, being the concentration of test compound that give a response (inhibition of colony formation/viability) half way between the top and bottom plateau of the sigmoidal concentration-response curve (inflection point of the curve), or as absolute IC50 values, being the concentration of test compound at the intersection of the concentration-response curves with T/C = 50%. For calculation of mean IC50 values the geometric mean was used. Results are presented as mean graph plots or heat maps (individual IC50 values relative to the geometric mean IC50 value) over all cell lines as tested.

The test system of a further experiment is MAXF 574. Kind of experiment: 3D clonogenic assay (PDX). The experiment is classed as cell-based. Conditions: Homo sapiens, MAXF 574, Breast. The procedure: as §1, §2
(§3) The clonogenic assay test was carried out in 96 well plate format. For each test a frozen aliquot of tumor cells prepared from tumor xenografts was thawed and assay plates were prepared as follows: each test well contained 3 layers of equal volume, 2 layers of semi-solid medium (bottom and top layer), and one layer of medium supernatant, with or without test compound. The bottom layer consisted of 0.05 mL/well Iscove's Modified Dulbecco's Medium (Invitrogen), supplemented with 20% (v/v) fetal calf serum (Sigma), 0.01% (w/v) gentamicin (Invitrogen) and 0.75% (w/v) agar (BD Biosciences). Tumor cells were added to 0.05 mL of the same culture medium supplemented with 0.4% (w/v) agar and plated onto the bottom layer. After 24 h, test compounds were added after serial dilution in DMSO and transfer in cell culture medium, and left on the cells for the duration of the experiment (continuous exposure, 0.05 mL drug overlay). Every dish included six untreated control wells and drug-treated groups in duplicate at 10 concentrations. Cultures were incubated at 37 °C and 7.5% CO2 in a humidified atmosphere for 8 to 13 days and monitored closely for colony growth using an inverted microscope. Within this period, ex vivo tumor growth lead to the formation of colonies with a diameter of >50 µm. […]

A further experiment has as its system RXF 1183. As to the kind of experiment: 3D clonogenic assay (PDX). The format is cell-based. The note with it: Homo sapiens, RXF 1183, Renal. The procedure: as §1, §2, §3
The next experiment has as its system BxPCI-2 cell line. Kind of experiment: ATP viability assay (CellTiter-Glo). The experiment is classed as cell-based. The note with it: Homo sapiens; BxPCI-2 (wild type RAS); at 24h, 48h and 72h. The text has this:
(§4) The following well-characterized human pancreatic ductal adenocarcinoma cell lines (ATCC) were used: HPAF II, BxPC-3, MIA-PaCa2 and Panc-1. These cell lines were generated from patient-derived tumors and are widely used model system to study pancreatic cancer (HPAF II: Kim YW, et al. Pancreas 4: 353-362, 1989; BxPC-3: Tan MH, et al. Cancer Invest. 4: 15-23, 1986; MIA-PaCa2: Yunis AA, et al. Int. J. Cancer 19: 128-135, 1977; Pacn-1: Lieber M, et al. Int. J. Cancer 15: 741-747, 1975).
(§5) Viability assay was conducted in 96 well microtiter plates seeded with 3000 cells. Cell viability was measured using CellTiter-Glo assay (Promega), according to the manufacturer's instructions. Luminescence was measured using Victor3 FA (Perkin Elmer) microtiter plate reader. Total luminescence was normalized relative to negative control and curve fitting performed using GraphPad Prism (v6.02) software. IC50 was determined using Cell Viability assay, and data was illustrated using GraphPad Prism (version 6.02)
In general terms: ATP-based viability assays read luminescence as a measure of living cells.

The subject of another experiment is MIA-PaCa-2 cell line. Kind of experiment: ATP viability assay (CellTiter-Glo). The experiment is classed as cell-based. Conditions: Homo sapiens; MIA-PaCa-2 (RAS mutation); at 24h, 48h and 72h.
From the text: as §4, §5

As to `O[C@H](c1cc(-c2ccc(Cl)cc2)nc2ccccc12)[C@@H]1CCCCN1` [S1, (R)-(2-(4-chlorophenyl)quinolin-4-yl)((S)-piperidin-2-yl)methanol], the IC50 (in general, the midpoint of a concentration-inhibition curve) in experiment [1] (colony formation, mean over tumors, read-out: absolute mean IC50 value) was 8.89 µM; in experiment [1] (colony formation, mean over tumors, read-out: relative mean IC50 value), 8.1 µM; in experiment [1] (geometric mean over Table 2, read-out: Mean IC50 (qeometr.) abs. IC50), 9.47 µM; in experiment [1] (geometric mean over Table 2, read-out: Mean IC50 (qeometr.) rel. IC50), 8.7 µM; in experiment [1] (most tumors tested, read-out: IC50), 2 to 15 µM; in experiment [1] (three tumors: BXF1352, CXF647, LXFA289, read-out: IC50) it was more than 15 µM. Moreover, the IC50 in the experiment on MAXF 574 (read-out: abs. IC50) was 50 µM; in the experiment with MAXF 574 (read-out: rel. IC50) it was 50 µM; in the experiment on RXF 1183 (read-out: abs. IC50) it was 50 µM; with RXF 1183 (read-out: rel. IC50), 50 µM; in the experiment with BxPCI-2 cell line, 12 to 19 µM; with MIA-PaCa-2 cell line it was 12 to 19 µM. For the same compound, in experiment [1] (range over tested xenografts), the “bottom plateaus of the concentration-effect curves” value is 0% to 47%. Further, in experiment [1] (sensitive tumors BXF 1258 and LXFA 526, on average), the “IC50 lower than the mean of all tumors” value stood at 3 fold.
